# Reference: ChEMBL document CHEMBL1201861, “Genomics of Drug Sensitity in Cancer screening data, Wellcome Trust Sanger Institute”
# Key:
# [1] = test system: MDA-MB-175-VII; experiment: cells; type: functional, cell-based, Homo sapiens; settings: Homo sapiens, MDA-MB-175-VII
# [2] = test system: SN12C; experiment: cells; type: functional, cell-based, Homo sapiens; settings: Homo sapiens, SN12C;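 also: growth inhibition of human SN12C cells, measured by a cell viability assay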
# Description: SANGER: Inhibition of human SN12C cell growth in a cell viability assay.
# [3] = test system: SW1990; experiment: cells; type: functional, cell-based, Homo sapiens; settings: Homo sapiens, SW1990
# Description: SANGER: Inhibition of human SW1990 cell growth in a cell viability assay.
# [4] = test system: MRK-nu-1; experiment: cells; type: functional, cell-based, Homo sapiens; settings: Homo sapiens, MRK-nu-1;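 also: cell viability assay measuring growth suppression of human MRK-nu-1 cells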
# Description: SANGER: Inhibition of human MRK-nu-1 cell growth in a cell viability assay.
# [5] = test system: NCI-H2347; experiment: cells; type: functional, cell-based, Homo sapiens; settings: Homo sapiens, NCI-H2347;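 also: growth inhibition of the cell line, read out with a cell viability assay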
# Description: SANGER: Inhibition of human NCI-H2347 cell growth in a cell viability assay.
# [6] = test system: BOKU; experiment: cells; type: functional, cell-based, Homo sapiens; settings: Homo sapiens, BOKU;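 also: growth inhibition of the human BOKU cell line, read out by a cell viability assay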
# Description: SANGER: Inhibition of human BOKU cell growth in a cell viability assay.
# [7] = test system: LCLC-103H cell line; experiment: cells; type: functional, cell-based, Homo sapiens; settings: Homo sapiens, LCLC-103H
# Description: SANGER: Inhibition of human LCLC-103H cell growth in a cell viability assay.
# [8] = test system: HCC1395; experiment: cells; type: functional, cell-based, Homo sapiens; settings: Homo sapiens, HCC1395;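 also: growth inhibition of HCC1395 cells, read out by a cell viability assay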
# Description: SANGER: Inhibition of human HCC1395 cell growth in a cell viability assay.
# [9] = test system: RCM-1; experiment: cells; type: functional, cell-based, Homo sapiens; settings: Homo sapiens, RCM-1;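 also: growth inhibition of the RCM-1 line, determined with a cell viability readout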
# Description: SANGER: Inhibition of human RCM-1 cell growth in a cell viability assay.
# [10] = test system: SNU-423; experiment: cells; type: functional, cell-based, Homo sapiens; settings: Homo sapiens, SNU-423
# Description: SANGER: Inhibition of human SNU-423 cell growth in a cell viability assay.
# [11] = test system: EFM-19; experiment: cells; type: functional, cell-based, Homo sapiens; settings: Homo sapiens, EFM-19;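 also: growth inhibition of human EFM-19 cells, measured in a cell viability assay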
# Description: SANGER: Inhibition of human EFM-19 cell growth in a cell viability assay.
# [12] = test system: Hs-578T; experiment: cells; type: functional, cell-based, Homo sapiens; settings: Homo sapiens, Hs-578T
# Description: SANGER: Inhibition of human Hs-578-T cell growth in a cell viability assay.
# [13] = test system: OPM-2; experiment: cells; type: functional, cell-based, Homo sapiens; settings: Homo sapiens, OPM-2;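 also: growth of OPM-2 cells measured with a viability assay, IC50 for suppression of proliferation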
# Description: SANGER: Inhibition of human OPM-2 cell growth in a cell viability assay.
# [14] = test system: NCI-H748; experiment: cells; type: functional, cell-based, Homo sapiens; settings: Homo sapiens, NCI-H748;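 also: growth inhibition of NCI-H748 cells, measured by a cell viability assay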
# Description: SANGER: Inhibition of human NCI-H748 cell growth in a cell viability assay.
# [15] = test system: BFTC-909; experiment: cells; type: functional, cell-based, Homo sapiens; settings: Homo sapiens, BFTC-909
# Description: SANGER: Inhibition of human BFTC-909 cell growth in a cell viability assay.
# [16] = test system: SW1783; experiment: cells; type: functional, cell-based, Homo sapiens; settings: Homo sapiens, SW1783
# Description: SANGER: Inhibition of human SW1783 cell growth in a cell viability assay.
# [17] = test system: CHP-126; experiment: cells; type: functional, cell-based, Homo sapiens; settings: Homo sapiens, CHP-126
# Description: SANGER: Inhibition of human CHP-126 cell growth in a cell viability assay.
# [18] = test system: A 172; experiment: cells; type: functional, cell-based, Homo sapiens; settings: Homo sapiens, A 172;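 also: growth inhibition of A172 cells, measured with a cell viability readout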
# Description: SANGER: Inhibition of human A172 cell growth in a cell viability assay.
# [19] = test system: NCI-H2171; experiment: cells; type: functional, cell-based, Homo sapiens; settings: Homo sapiens, NCI-H2171;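 also: growth inhibition of human NCI-H2171 cells, read out by a cell viability assay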
# Description: SANGER: Inhibition of human NCI-H2171 cell growth in a cell viability assay.
# [20] = test system: Detroit 562; experiment: cells; type: functional, cell-based, Homo sapiens; settings: Homo sapiens, Detroit 562;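 also: growth inhibition of human Detroit 562 cells, read out by a cell viability assay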
# Description: SANGER: Inhibition of human Detroit562 cell growth in a cell viability assay.
# [21] = test system: 786-0; experiment: cells; type: functional, cell-based, Homo sapiens; settings: Homo sapiens
# Description: SANGER: Inhibition of human 786-0 cell growth in a cell viability assay.
# [22] = test system: HSC-4; experiment: cells; type: functional, cell-based, Homo sapiens; settings: Homo sapiens, HSC-4;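 also: growth inhibition of human HSC-4 cells, read out with a cell viability assay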
# Description: SANGER: Inhibition of human HSC-4 cell growth in a cell viability assay.
# [23] = test system: EFO-21; experiment: cells; type: functional, cell-based, Homo sapiens; settings: Homo sapiens, EFO-21;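 also: growth inhibition of EFO-21 cells measured with a viability assay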
# Description: SANGER: Inhibition of human EFO-21 cell growth in a cell viability assay.
# [24] = test system: GAMG; experiment: cells; type: functional, cell-based, Homo sapiens; settings: Homo sapiens, GAMG;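 also: cell growth inhibition measured by a viability assay in the GAMG human cell line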
# Description: SANGER: Inhibition of human GAMG cell growth in a cell viability assay.
# [25] = test system: SU-DHL-1; experiment: SANGER: Inhibition of human SU-DHL-1 cell growth in a cell viability assay.; type: functional, cell-based; settings: Homo sapiens, SU-DHL-1
# [26] = test system: NCI-H28; experiment: cells; type: functional, cell-based, Homo sapiens; settings: Homo sapiens, NCI-H28;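 also: growth inhibition of human NCI-H28 cells, read out as cell viability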
# Description: SANGER: Inhibition of human NCI-H28 cell growth in a cell viability assay.
# [27] = test system: ME-180; experiment: cells; type: functional, cell-based, Homo sapiens; settings: Homo sapiens, ME-180;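 also: cell viability assay measuring growth inhibition of ME-180 cells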
# Description: SANGER: Inhibition of human ME-180 cell growth in a cell viability assay.
# [28] = test system: C-33-A; experiment: cells; type: functional, cell-based, Homo sapiens; settings: Homo sapiens, C-33-A;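 also: cell viability assay measuring growth inhibition of C-33-A cells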
# Description: SANGER: Inhibition of human C-33-A cell growth in a cell viability assay.
# [29] = test system: Huh-7; experiment: cells; type: functional, cell-based, Homo sapiens; settings: Homo sapiens, Huh-7;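 also: HuH-7 cell growth inhibition, read out with a cell viability assay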
# Description: SANGER: Inhibition of human HuH-7 cell growth in a cell viability assay.
# [30] = test system: HLE; experiment: cells; type: functional, cell-based, Homo sapiens; settings: Homo sapiens, HLE;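 also: growth inhibition of human HLE cells, read out by a cell viability assay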
# Description: SANGER: Inhibition of human HLE cell growth in a cell viability assay.
# [31] = test system: KYSE-270; experiment: cells; type: functional, cell-based, Homo sapiens; settings: Homo sapiens, KYSE-270;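 also: cell growth inhibition measured with a viability assay in the human KYSE-270 line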
# Description: SANGER: Inhibition of human KYSE-270 cell growth in a cell viability assay.
# [32] = test system: KYSE-520 cell line; experiment: cells; type: functional, cell-based, Homo sapiens; settings: Homo sapiens, KYSE-520;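 also: growth inhibition of human KYSE-520 cells, read out with a viability assay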
# Description: SANGER: Inhibition of human KYSE-520 cell growth in a cell viability assay.
# [33] = test system: HPAF-II; experiment: cells; type: functional, cell-based, Homo sapiens; settings: Homo sapiens, HPAF-II;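 also: growth inhibition of HPAF-II cells, read out with a cell viability assay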
# Description: SANGER: Inhibition of human HPAF-II cell growth in a cell viability assay.
# [34] = test system: 639-V; experiment: cells; type: functional, cell-based, Homo sapiens; settings: Homo sapiens, 639-V;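 also: growth inhibition of 639-V cells, read out with a cell viability assay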
# Description: SANGER: Inhibition of human 639-V cell growth in a cell viability assay.
# [35] = test system: NCI-H2087; experiment: cells; type: functional, cell-based, Homo sapiens; settings: Homo sapiens, NCI-H2087;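 also: growth inhibition determined with a cell viability readout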
# Description: SANGER: Inhibition of human NCI-H2087 cell growth in a cell viability assay.
# [36] = test system: IGROV-1; experiment: cells; type: functional, cell-based, Homo sapiens; settings: Homo sapiens, IGROV-1;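 also: reduction of IGROV-1 cell growth, read out with a viability assay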
# Description: SANGER: Inhibition of human IGROV-1 cell growth in a cell viability assay.
# [37] = test system: 8305C; experiment: cells; type: functional, cell-based, Homo sapiens; settings: Homo sapiens, 8305C
# Description: SANGER: Inhibition of human 8305C cell growth in a cell viability assay.
# [38] = test system: NCI-H2081; experiment: cells; type: functional, cell-based, Homo sapiens; settings: Homo sapiens, NCI-H2081;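 also: growth inhibition of human NCI-H2081 cells, read out with a cell viability assay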
# Description: SANGER: Inhibition of human NCI-H2081 cell growth in a cell viability assay.
# [39] = test system: NCI-H1693; experiment: cells; type: functional, cell-based, Homo sapiens; settings: Homo sapiens, NCI-H1693;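 also: growth inhibition of the human cell line, read out with a cell viability assay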
# Description: SANGER: Inhibition of human NCI-H1693 cell growth in a cell viability assay.
# [40] = test system: M14; experiment: cells; type: functional, cell-based, Homo sapiens; settings: Homo sapiens, M14;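 also: growth inhibition of M14 cells, read out with a cell viability assay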
# Description: SANGER: Inhibition of human M14 cell growth in a cell viability assay.
# [41] = test system: NCI-H727; experiment: cells; type: functional, cell-based, Homo sapiens; settings: Homo sapiens, NCI-H727;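 also: growth inhibition of human NCI-H727 cells, read out with a cell viability assay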
# Description: SANGER: Inhibition of human NCI-H727 cell growth in a cell viability assay.
# [42] = test system: DMS-153; experiment: cells; type: functional, cell-based, Homo sapiens; settings: Homo sapiens, DMS-153
# Description: SANGER: Inhibition of human DMS-153 cell growth in a cell viability assay.
# [43] = test system: HSC-3; experiment: cells; type: functional, cell-based, Homo sapiens; settings: Homo sapiens, HSC-3
# Description: SANGER: Inhibition of human HSC-3 cell growth in a cell viability assay.
# [44] = test system: NCI-H2052; experiment: cells; type: functional, cell-based, Homo sapiens; settings: Homo sapiens, NCI-H2052;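 also: growth inhibition of NCI-H2052 cells, read out with a cell viability assay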
# Description: SANGER: Inhibition of human NCI-H2052 cell growth in a cell viability assay.
structure (smiles),measurement,setting,value
N#Cc1c(O)c2c(-c3ccc(-c4ccccc4O)cc3)csc2[nH]c1=O,IC50,[1],> 1020 nM
same,IC50,[2],> 1020 nM
same,IC50,[3],> 1020 nM
same,IC50,[4],178 nM
same,IC50,[5],> 1020 nM
same,IC50,[6],> 1020 nM
same,IC50,[7],> 1020 nM
same,IC50,[8],> 1020 nM
same,IC50,[9],> 1020 nM
same,IC50,[10],> 1020 nM
same,IC50,[11],> 1020 nM
same,IC50,[12],> 1020 nM
same,IC50,[13],218 nM
same,IC50,[14],> 1020 nM
same,IC50,[15],> 1020 nM
same,IC50,[16],> 1020 nM
same,IC50,[17],269 nM
same,IC50,[18],> 1020 nM
same,IC50,[19],622 nM
same,IC50,[20],> 1020 nM
same,IC50,[21],> 1020 nM
same,IC50,[22],> 1020 nM
same,IC50,[23],> 1020 nM
same,IC50,[24],> 1020 nM
same,IC50,[25],> 1020 nM
same,IC50,[26],> 1020 nM
same,IC50,[27],> 1020 nM
same,IC50,[28],> 1020 nM
same,IC50,[29],> 1020 nM
same,IC50,[30],> 1020 nM
same,IC50,[31],> 1020 nM
same,IC50,[32],> 1020 nM
same,IC50,[33],> 1020 nM
same,IC50,[34],> 1020 nM
same,IC50,[35],214 nM
same,IC50,[36],> 1020 nM
same,IC50,[37],> 1020 nM
same,IC50,[38],> 1020 nM
same,IC50,[39],> 1020 nM
same,IC50,[40],> 1020 nM
same,IC50,[41],> 1020 nM
same,IC50,[42],373 nM
same,IC50,[43],> 1020 nM
same,IC50,[44],> 1020 nM
Nc1ccn([C@@H]2O[C@H](CO)[C@@H](O)C2(F)F)c(=O)n1 [GEMCITABINE],IC50,[1],> 1020 nM
same,IC50,[2],497 nM
same,IC50,[3],113 nM
same,IC50,[4],2.57 nM
same,IC50,[5],792 nM
same,IC50,[6],254 nM
same,IC50,[7],33.3 nM
same,IC50,[8],> 1020 nM
same,IC50,[9],665 nM
same,IC50,[10],62.5 nM
same,IC50,[11],> 1020 nM
same,IC50,[12],> 1020 nM
same,IC50,[13],> 1020 nM
same,IC50,[14],355 nM
same,IC50,[15],146 nM
same,IC50,[16],< 4 nM
same,IC50,[17],24.1 nM
same,IC50,[18],24.7 nM
same,IC50,[19],> 1020 nM
same,IC50,[20],10.4 nM
same,IC50,[21],< 4 nM
same,IC50,[22],< 4 nM
same,IC50,[23],53.7 nM
same,IC50,[24],3.74 nM
same,IC50,[25],62.7 nM
same,IC50,[26],> 1020 nM
same,IC50,[27],38.8 nM
same,IC50,[28],< 4 nM
same,IC50,[29],569 nM
same,IC50,[30],3 nM
same,IC50,[31],< 4 nM
same,IC50,[32],92.8 nM
same,IC50,[33],428 nM
same,IC50,[34],193 nM
same,IC50,[35],2.14 nM
same,IC50,[36],< 4 nM
same,IC50,[37],9.64 nM
same,IC50,[38],311 nM
same,IC50,[39],46.1 nM
same,IC50,[40],515 nM
same,IC50,[41],2.51 nM
same,IC50,[42],> 1020 nM
same,IC50,[43],1.91 nM
same,IC50,[44],145 nM
C#Cc1cccc(Nc2ncnc3cc(OCCOC)c(OCCOC)cc23)c1 [ERLOTINIB],IC50,[4],> 2000 nM
same,IC50,[13],> 2000 nM
same,IC50,[14],> 2000 nM
same,IC50,[17],> 2000 nM
same,IC50,[19],> 2000 nM
same,IC50,[25],> 2000 nM
same,IC50,[38],> 2000 nM
same,IC50,[42],> 2000 nM
COc1cc(-c2nn([C@H]3CC[C@H](N4CCN(C(C)=O)CC4)CC3)c3ncnc(N)c23)ccc1NC(=O)c1cc2ccccc2n1C,IC50,[4],2950 nM
same,IC50,[6],> 5120 nM
same,IC50,[13],> 5120 nM
same,IC50,[14],> 5120 nM
same,IC50,[17],> 5120 nM
same,IC50,[19],> 5120 nM
same,IC50,[25],> 5120 nM
same,IC50,[38],> 5120 nM
same,IC50,[42],> 5120 nM
CC(=O)O[C@H]1C(=O)[C@@]2(C)[C@H]([C@H](OC(=O)c3ccccc3)[C@]3(O)C[C@H](OC(=O)[C@H](O)[C@@H](NC(=O)c4ccccc4)c4ccccc4)C(C)=C1C3(C)C)[C@]1(OC(C)=O)CO[C@@H]1C[C@@H]2O [PACLITAXEL],IC50,[4],2.99 nM
same,IC50,[6],> 102 nM
same,IC50,[13],36.7 nM
same,IC50,[14],> 102 nM
same,IC50,[17],> 102 nM
same,IC50,[19],> 102 nM
same,IC50,[25],> 102 nM
same,IC50,[38],> 102 nM
same,IC50,[42],> 102 nM
CCN(CC)CCNC(=O)c1c(C)[nH]c(/C=C2\C(=O)Nc3ccc(F)cc32)c1C [SUNITINIB],IC50,[4],> 8000 nM
same,IC50,[6],> 8000 nM
same,IC50,[13],3060 nM
same,IC50,[14],> 8000 nM
same,IC50,[17],> 8000 nM
same,IC50,[19],> 8000 nM
same,IC50,[25],4800 nM
same,IC50,[38],> 8000 nM
same,IC50,[42],> 8000 nM
